{
  "source": "patent US6379713B1",
  "about": "“Method of treating an itch with iodine” (priority 2001, dated 2002)",
  "key": {"itching skin": {"tested_on": "itching skin", "assay": "rubbing iodine condensate on cotton fiber against itching skin", "format": "in vivo, mammal", "protocol": "A concentration of iodine in the range of 0.01 to 2 mg/inch^2 of skin surface is found to provide analgesia. An applicator useful for carrying and discharging the analgesic element, in its amorphous form, has been made by loading cotton fiber over a bed of hard iodine crystals sitting at the bottom of a fuming chamber. The bottom of the fiber stack is placed in contact to the top of the iodine bed. By warming the crystals, the reservoir fiber is charged with a fine, soft, rising tan colored sublimate of the hard crystal. At a temperature of 35.deg.C., 2 days is sufficient to charge a fiber with sublimated iodine in a range, by weight, of 1 to 30 mg/g of the wipe fiber. The charged fiber has a tan color, appearing as of having been dipped in liquid iodophor and then dried. Individual crystals of iodine are not readily observed and the charged wipe feels softer than the original fiber. On dipping the charged fiber in water, its tan coloration disappears.\nItching skin is found to be efficiently treated by rubbing the cotton fiber coated with condensed iodine against the itch.\nThe skin is not irritated by treatment from a wipe preferably comprising about 10 mg of condensate per gram of fiber comprising cotton. […] A preferred treatment supplies about 0.05 to 1 mg/inch^2 of skin. An iodine concentration of over 2 mg/inch^2 of skin begins to cause pain, while still relieving the itch."}, "itch": {"tested_on": "itch", "details": "cited from earlier work; for time necessary to stop the immediate itch: topical application"}},
  "data": [
    {"smiles": "II", "note": "[iodine]", "values": [
      {"measurement": "time to relief from an itch after application", "setting": "itching skin; amorphous tan condensate, single treatment", "result": "≤ 1", "unit": "min"},
      {"measurement": "time to relieve the urge to scratch after application", "setting": "itching skin; cotton fiber coated with condensed iodine, rubbed in forceful back and forth motion", "result": "within three minutes"},
      {"measurement": "iodine concentration on skin that begins to cause pain", "setting": "itching skin; while still relieving the itch", "result": "over 2 mg/inch^2"},
      {"measurement": "skin irritation", "setting": "itching skin; wipe with about 10 mg of condensate per gram of cotton fiber", "result": "not irritated"}
    ]},
    {"smiles": "COC1=CC(=O)C[C@@H](C)[C@]12Oc1c(Cl)c(OC)cc(OC)c1C2=O", "note": "[griseofulvin]", "values": [
      {"measurement": "time necessary to stop the immediate itch (time to disinfect)", "setting": "itch; antibiotic composition", "result": "several days"}
    ]},
    {"smiles": "CC(=O)OCC(=O)[C@@]1(O)CC[C@H]2[C@@H]3CCC4=CC(=O)CC[C@]4(C)[C@H]3[C@@H](O)C[C@@]21C", "note": "[hydrocortisone acetate]", "values": [
      {"measurement": "time necessary to stop the immediate itch", "setting": "itch", "result": "about 15 minutes"}
    ]},
    {"smiles": "CCOC(=O)c1ccc(N)cc1", "note": "[benzocaine]", "values": [
      {"measurement": "time necessary to stop the immediate itch", "setting": "itch", "result": "≤ 5", "unit": "min"}
    ]},
    {"smiles": "CN(C)CCOC(c1ccccc1)c1ccccc1", "note": "[diphenhydramine]", "values": [
      {"measurement": "time necessary to stop the immediate itch", "setting": "itch", "result": "about 15 minutes"}
    ]}
  ]
}
